Data reported in patent US10167262B2, “Herbicidal substituted 3-arylpyrazoles” (FMC CORPORATION, priority 2014, dated 2019).

Legend:
Type in all cases: in vivo
[1] = test system: galium (catchweed bedstraw, Galium aparine); test: Test C pre-/postemergence greenhouse test, plant response rating 0-100
Excerpt: (§1) Seeds of plant species selected from blackgrass (Alopecurus myosuroides), Italian ryegrass (Lolium multiflorum), winter wheat (Triticum aestivum), galium (catchweed bedstraw, Galium aparine), corn (Zea mays), large (Lg) crabgrass (Digitaria sanguinalis), giant foxtail (Setaria faberii), johnsongrass (Sorghum halepense), lambsquarters (Chenopodium album), morningglory (Ipomoea coccinea), yellow nutsedge (Cyperus esculentus), pigweed (Amaranthus retroflexus), ragweed (common ragweed, Ambrosia elatior), soybean (Glycine max), barnyardgrass (Echinochloa crus-galli), oilseed rape (Brassica napus), waterhemp (common waterhemp, Amaranthus rudis), and velvetleaf (Abutilon theophrasti) were planted into a blend of loam soil and sand and treated preemergence with test chemicals formulated in a non-phytotoxic solvent mixture which included a surfactant.
(§2) At the same time, plants selected from these crop and weed species and also winter barley (Hordeum vulgare), bermudagrass (Cynodon dactylon), downy bromegrass (Bromus tectorum), canarygrass (Phalaris minor), cocklebur (common cocklebur, Xanthium strumarium), woolly cupgrass (Eriochloa villosa), deadnettle (henbit deadnettle, Lamium amplexicaule), green foxtail (Setaria viridis), goosegrass (Eleusine indica), surinam grass (Brachiaria decumbens), windgrass (Apera spica-venti), chickweed (common chickweed, Stellaria media), kochia (Kochia scoparia), and wild oat (Avena fatua), were planted in pots containing Redi-Earth® planting medium (Scotts Company, 14111 Scottslawn Road, Marysville, Ohio 43041) comprising spaghnum peat moss, vermiculite, wetting agent and starter nutrients and treated with postemergence applications of test chemicals formulated in the same manner. Plants ranged in height from 2 to 18 cm (1- to 4-leaf stage) for postemergence treatments. Treated plants and controls were maintained in a greenhouse for 13 to 15 days, after which time all species were compared to controls and visually evaluated. Plant response ratings, summarized in Table C, are based on a scale of 0 to 100 where 0 is no effect and 100 is complete control. A dash (-) response means no test result.

[2] = test system: Italian ryegrass (Lolium multiflorum); test: as above
Excerpt: as §1, §2

[3] = test system: velvetleaf (Abutilon theophrasti); test: as above
Excerpt: as §1, §2

[4] = test system: morningglory (Ipomoea coccinea); test: as above
Excerpt: as §1, §2

[5] = test system: ragweed (common ragweed, Ambrosia elatior); test: as above
Excerpt: as §1, §2

[6] = test system: wheat (Triticum aestivum); test: Test A pre-/postemergence greenhouse herbicide test, visual injury rating 0-100
In short: (§3)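 Visual injury scored on a 0–100 scale versus untreated controls roughly 10 days after treatment in greenhouse. Treatments were preemergence soil sprays plus postemergence sprays to plants 2–10 cm tall at one- to two-leaf stage, in a surfactant-containing solvent formulation.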

[7] = test system: barnyardgrass (Echinochloa crus-galli); test: as above
In short: as §3

[8] = test system: velvetleaf (Abutilon theophrasti); test: as above
In short: as §3

[9] = test system: pigweed (Amaranthus retroflexus); test: as above
In short: as §3

[10] = test system: morningglory (Ipomoea spp.); test: as above
In short: as §3

[11] = test system: large (Lg) crabgrass (Digitaria sanguinalis); test: as above
In short: as §3

corn (Zea mays) = test: as above
In short: as §3

[12] = test system: giant foxtail (Setaria faberii); test: as above
In short: as §3

[13] = Postemergence, 250 g ai/ha, scale 0 to 100
[14] = Postemergence, 500 g ai/ha, scale 0 to 100
[15] = Preemergence, 0 to 100 scale (0 no effect, 100 complete control), rate 500 g ai/ha per head r3, sub-head of this section not shown

O=C(c1ccccc1)c1cn(S(=O)(=O)CC(F)(F)F)nc1-c1cc(Cl)cc(Cl)c1 [Compound 3]
100: Plant response rating, Velvetleaf ([3]; Preemergence, 500 g ai/ha) | Plant response rating (0 to 100 scale), Velvetleaf ([8]; Postemergence, 500 g ai/ha) | Plant response rating (0 to 100 scale), Pigweed ([9]; Postemergence, 500 g ai/ha)
60: Pigweed plant response rating (0 = no effect, 100 = complete control) ([9]; Preemergence, 125 g ai/ha)
10: Plant response rating, Morningglory ([4]; Preemergence, 250 g ai/ha) | Plant response rating, Morningglory ([4]; Preemergence, 500 g ai/ha)
65: Plant response rating, Ragweed [5, 13] | Plant response rating, Ragweed [5, 14]
0: Plant response rating (0 to 100), Galium ([1]; Postemergence, 62 g ai/ha) | Plant response rating (0 to 100), Galium ([1]; Postemergence, 125 g ai/ha) | Plant response rating, Galium ([1]; Preemergence, 62 g ai/ha) | Plant response rating, Galium ([1]; Preemergence, 125 g ai/ha) | Plant response rating, Galium ([1]; Preemergence, 250 g ai/ha) | Plant response rating, Galium ([1]; Preemergence, 500 g ai/ha) | Plant response rating (0 to 100), Ryegrass, Italian ([2]; Postemergence, 62 g ai/ha) | Plant response rating (0 to 100), Ryegrass, Italian ([2]; Postemergence, 125 g ai/ha) | Plant response rating, Ryegrass, Italian [2, 13] | Plant response rating, Ryegrass, Italian [2, 14] | Plant response rating, Ryegrass, Italian ([2]; Preemergence, 62 g ai/ha) | Plant response rating, Ryegrass, Italian ([2]; Preemergence, 125 g ai/ha) | Plant response rating, Ryegrass, Italian ([2]; Preemergence, 250 g ai/ha) | Plant response rating, Ryegrass, Italian ([2]; Preemergence, 500 g ai/ha) | Plant response rating, Ryegrass, Italian [2, 15] | Plant response rating (0 to 100), Morningglory ([4]; Postemergence, 62 g ai/ha) | Plant response rating (0 to 100), Morningglory ([4]; Postemergence, 125 g ai/ha) | Plant response rating, Morningglory [4, 13] | Plant response rating, Morningglory [4, 14] | Plant response rating, Morningglory ([4]; Preemergence, 62 g ai/ha) | Plant response rating, Morningglory ([4]; Preemergence, 125 g ai/ha) | Plant response rating, Ragweed ([5]; Preemergence, 62 g ai/ha) | Plant response rating, Ragweed ([5]; Preemergence, 125 g ai/ha) | Plant response rating (0 to 100 scale), Wheat ([6]; Postemergence, 125 g ai/ha) | Plant response rating (0 to 100 scale), Wheat ([6]; Postemergence, 500 g ai/ha) | Wheat plant response rating (0 = no effect, 100 = complete control) ([6]; Preemergence, 125 g ai/ha) | Plant response rating (0 to 100 scale), Wheat ([6]; Preemergence, 500 g ai/ha) | Plant response rating (0 to 100 scale), Barnyardgrass ([7]; Postemergence, 125 g ai/ha) | Plant response rating (0 to 100 scale), Barnyardgrass ([7]; Postemergence, 500 g ai/ha) | Barnyardgrass plant response rating (0 = no effect, 100 = complete control) ([7]; Preemergence, 125 g ai/ha) | Plant response rating (0 to 100 scale), Barnyardgrass ([7]; Preemergence, 500 g ai/ha) | Velvetleaf plant response rating (0 = no effect, 100 = complete control) ([8]; Preemergence, 125 g ai/ha) | Plant response rating (0 to 100 scale), Morningglory ([10]; Postemergence, 125 g ai/ha) | Plant response rating (0 to 100 scale), Morningglory ([10]; Postemergence, 500 g ai/ha) | Morningglory plant response rating (0 = no effect, 100 = complete control) ([10]; Preemergence, 125 g ai/ha) | Plant response rating (0 to 100 scale), Morningglory ([10]; Preemergence, 500 g ai/ha) | Plant response rating (0 to 100 scale), Crabgrass, Large ([11]; Postemergence, 125 g ai/ha) | Plant response rating (0 to 100 scale), Crabgrass, Large ([11]; Postemergence, 500 g ai/ha) | Crabgrass, Large plant response rating (0 = no effect, 100 = complete control) ([11]; Preemergence, 125 g ai/ha) | Plant response rating (0 to 100 scale), Crabgrass, Large ([11]; Preemergence, 500 g ai/ha) | Plant response rating (0 to 100 scale), Corn (corn (Zea mays); Postemergence, 125 g ai/ha) | Plant response rating (0 to 100 scale), Corn (corn (Zea mays); Postemergence, 500 g ai/ha) | Corn plant response rating (0 = no effect, 100 = complete control) (corn (Zea mays); Preemergence, 125 g ai/ha) | Plant response rating (0 to 100 scale), Corn (corn (Zea mays); Preemergence, 500 g ai/ha) | Plant response rating (0 to 100 scale), Foxtail, Giant ([12]; Postemergence, 125 g ai/ha) | Plant response rating (0 to 100 scale), Foxtail, Giant ([12]; Postemergence, 500 g ai/ha) | Foxtail, Giant plant response rating (0 = no effect, 100 = complete control) ([12]; Preemergence, 125 g ai/ha) | Plant response rating (0 to 100 scale), Foxtail, Giant ([12]; Preemergence, 500 g ai/ha)
25: Plant response rating (0 to 100), Ragweed ([5]; Postemergence, 125 g ai/ha)
55: Plant response rating, Velvetleaf ([3]; Preemergence, 250 g ai/ha)
20: Plant response rating, Galium [1, 13] | Plant response rating, Velvetleaf [3, 15] | Plant response rating (0 to 100), Ragweed ([5]; Postemergence, 62 g ai/ha)
80: Plant response rating (0 to 100 scale), Pigweed ([9]; Postemergence, 125 g ai/ha) | Plant response rating (0 to 100 scale), Pigweed ([9]; Preemergence, 500 g ai/ha)
70: Plant response rating (0 to 100), Velvetleaf ([3]; Postemergence, 62 g ai/ha) | Plant response rating (0 to 100), Velvetleaf ([3]; Postemergence, 125 g ai/ha) | Plant response rating, Ragweed ([5]; Preemergence, 250 g ai/ha)
90: Plant response rating (0 to 100 scale), Velvetleaf ([8]; Postemergence, 125 g ai/ha)
85: Plant response rating, Velvetleaf [3, 14]
50: Plant response rating, Velvetleaf ([3]; Preemergence, 62 g ai/ha) | Plant response rating (0 to 100 scale), Velvetleaf ([8]; Preemergence, 500 g ai/ha)
30: Plant response rating, Galium [1, 14]
75: Plant response rating, Velvetleaf [3, 13]
95: Plant response rating, Ragweed ([5]; Preemergence, 500 g ai/ha)
35: Plant response rating, Ragweed [5, 15]
